Test results taken from patent publication US5789447A, “Nitric oxide releasing compounds as protective agents in ischemia reperfusion injury” (priority 1995, dated 1998).
Entries after “also recorded” stand apart in the source; their conditions may differ.

Legend:
[1] = tested on: ventral mesencephalic cells; experiment: [3H]dopamine uptake after hydrogen peroxide or HX/XO exposure; type: cell-based, Sprague Dawley rats
Procedure: (§1) The ventral tegmental mesencephalon was dissected from 14 day old embryos (precisely timed pregnant Sprague Dawley rats; Zivic-Miller, Allison Park, Pa.) under sterile conditions and mechanically dissociated into complete culture medium. The culture medium consisted of a 1:1 mixture of modified minimum essential medium and nutrient mixture F-12 supplemented with 6 mg/ml D-gluose, 2 mM glutamine, 0.5 U/ml penicillin G, 0.5 mg/ml streptomycin (all from Gibco, Grand Island, N.Y.) and 15% equine serum (Hyclone, Logan, Utah). Cells were plated into multiwell plates that were previously coated with poly-D-lysine (15 μg/ml) and laminin (10 μg/ml) at a density of 40,000 cells/cm^2 (Costar). The cells were maintained for 5-7 days at 37° C. in an atmosphere of 95% air and 5% CO2 saturated with H2 O. On the fifth day of culture 1 μM cytosine-β-D-arabinofuranoside was added to inhibit glial cell growth.
Uptake of dopanine by dopaminergic neurons was assayed as follows. The cells in each well were washed three times with 1 ml PBS containing 6 mg/ml glucose and thereafter Dulbecco's modified essential medium (Quality Biological, Inc., Farmingham, Mass.) containing 6 mg/ml D-glucose, 50 μM ascorbic acid, and 5×10^-8 M [^3 H]dopamine (NEN, Boston, Mass.; specific activity of […]) was added and incubated for 15 min at 37° C. [^3 H]dopamine uptake was stopped by aspirating the incubation solution and washing the cells three times with ice-cold PBS containing 6 mg/ml D-glucose. The cells were removed by washing the wells with an equal volume of 0.2N NaOH and 0.2N HCl containing 0.02% Triton X-100. The residual intracellular radioactivity in the cells was determined by scintillation spectroscopy.
Accordingly, ventral mesencephalic cell cultures were exposed to 100 μM H2 O2 for 1 hr in the presence and absence of 100 μM DEA/NO and evaluated for their ability to take up dopamine.
In a separate study, cells were cultured for 7 days and then exposed to 50 or 100 μM hydrogen peroxide for 60 min or to 0.04 units/ml HX/XO for 5 or 10 min in the absence or presence of 100 μM DEA/NO. The cells were washed with PBS containing 6 g/l D-glucose, culture medium was added, and the cells were incubated for 18 hr. The ability of the cells (6 wells of 450,000 cells/well per group) to take up ^3 [H]-dopamine was measured. These cells were exposed to ten times less hydrogen peroxide or HX/XO than the V79 cells described above.

XO [2] = molecular target: T1, XO (Bos taurus, UniProt P80457); experiment: XO activity by superoxide-induced reduction of ferricytochrome c; type: biochemical
Procedure: (§2) The activity of XO was monitored in the absence and presence of 1 mM DEA/NO by two different assays. Superoxide-induced reduction of ferricytochrome c to ferrocytochrome c was monitored spectrophotometrically at 550 nm (Fridovich, Handbook of Method for Oxygen Radical Research, pages 213-215 (1985)). The reaction was carried out in a 1 ml volume in aerated phosphate buffer (pH 7.8, 50 mM) containing 50 μM DETAPAC. HX was maintained at 2.5 mM and ferricytochrome c at 20 μM. The reactions were initiated with the addition of XO (final concentration of 0.2 units/ml). The activity of XO in the absence and presence of 1 mM DEA/NO was directly monitored by measuring the production of uric acid spectrophotometrically at 305 nm for 10 min under the same conditions but in the absence of ferricytochrome c. All enzymatic assays and chemical reactions were done at 37° C.

[3] = tested on: Chinese hamster V79 lung fibroblasts; experiment: V79 clonogenic survival, hypoxanthine/xanthine oxidase (HX/XO) cytotoxicity
Procedure: Chinese hamster V79 lung fibroblasts were cultured in F12 medium supplemented with 10% fetal calf serum and antibiotics. Cell survival was assessed by clonogenic assay with 85-95% plating efficiency. Stock cultures of exponentially growing cells were trypsinized, rinsed, and plated (7×10^5 cells/dish) into a number of 100 cm^2 petri dishes and incubated 16 hr at 37° C. prior to experimental protocols.
It has been shown that exposure of V79 cells to hydrogen peroxide results in dose-dependent cytotoxicity (Mitchell et al., supra).
HX and XO were purchased from Boehringer Co. (Indianapolis, Ind.). Nitrite, diethylamine, sulfinamide, diethylenetriaminepentaacetic acid (DETAPAC) and N-(1-naphthyl)ethylenediaminedihydrogenchloride (NEDD) were purchased from Aldrich (Milwaukee, Wis.). Cytosine-β-D-arabinofuranoside and ferricytochrome c were purchased from Sigma (St. Louis, Mo.). DEA/NO and SPER/NO were synthesized as previously described (Maragos et al., (1991), supra).
Exponentially growing cultures of Chinese hamster V79 fibroblasts were exposed to either HX/XO (final concentration of HX was 0.5 mM; 0.08 units/ml XO were used) for various amounts of time (FIG. 1A) or to various concentrations of hydrogen peroxide for one hour (FIG. 1B). […] Additionally, 1 mM DEA/NO was added to medium in the absence of cells, incubated at 37° C. for 1 hr or 16 hrs, and then added just prior to the addition of hydrogen peroxide to evaluate the effects of DEA/NO which had released NO. After treatment, cell monolayers were rinsed twice with phosphate-buffered saline (PBS), trypsinized, counted and plated in triplicate for macroscopic colony formation. Each dose determination was plated in triplicate and experiments were repeated a minimum of two times. Plates were incubated for 7 days, after which colonies were fixed with methanol/acetic acid (3:1), stained with crystal violet, and counted. Colonies containing more than 50 cells were scored.

[4] = tested on: Chinese hamster V79 lung fibroblasts; experiment: V79 clonogenic survival, hydrogen peroxide cytotoxicity; type: cell-based
Source text: Colonies containing more than 50 cells were scored.

[5] = Chemical controls: DEA/NO or NO with hydrogen peroxide; type: physicochemical; conditions: presence of 1 mM hydrogen peroxide
Procedure: Anaerobic solutions of 1 mM hydrogen peroxide in 10 mM phosphate buffer, pH 7.4, were mixed with 1 mM NO. […] The rate of decomposition of DEA/NO was unaffected by the presence of 1 mM hydrogen peroxide; likewise, hydrogen peroxide was not consumed by DEA/NO or intermediates of the DEA/NO decomposition reaction as measured by the production of I3^- (Hochanadel, J. Phys. Chem., 56, 587-594 (1952)).

mesencephalic neurons = experiment: Morphology of mesencephalic neurons (neurites and somas); type: cell-based, Sprague Dawley rats
Procedure: as §1
When cells were exposed to hydrogen peroxide for 1 hr, varicosities formed in the neurites and somas swelled. Exposure to HX/XO for as short as 5 min elicited similar morphological changes in mesencephalic neurons.

XO [6] = molecular target: T1, XO; experiment: XO activity by uric acid production at 305 nm; type: biochemical
Procedure: as §2

neuronal cell death = conditions: Lafon-Cazal et al.; cited from earlier work
NMDA receptor = conditions: U.S. Pat. No. 5,234,956; cited from earlier work
[7] = tested on: Leukocyte-endothelial cell adhesive interactions; conditions: postcapillary venules; Kubes et al. 1991; cited from earlier work
[8] = Kanner et al.; cited from earlier work
[9] = Saran et al. 1990; cited from earlier work
platelet aggregation = conditions: Rubanyi et al.; cited from earlier work
[10] = tested on: Primary neuronal cell cultures; conditions: as high as 1 mM; cited from earlier work
[11] = tested on: endothelial cell monolayers; conditions: Radomski et al.; cited from earlier work
lung tissue = conditions: high concentrations in the gas phase; cited from earlier work
[12] = 100 μM with hydrogen peroxide or HX/XO

T1 sequence (P80457 whole entry): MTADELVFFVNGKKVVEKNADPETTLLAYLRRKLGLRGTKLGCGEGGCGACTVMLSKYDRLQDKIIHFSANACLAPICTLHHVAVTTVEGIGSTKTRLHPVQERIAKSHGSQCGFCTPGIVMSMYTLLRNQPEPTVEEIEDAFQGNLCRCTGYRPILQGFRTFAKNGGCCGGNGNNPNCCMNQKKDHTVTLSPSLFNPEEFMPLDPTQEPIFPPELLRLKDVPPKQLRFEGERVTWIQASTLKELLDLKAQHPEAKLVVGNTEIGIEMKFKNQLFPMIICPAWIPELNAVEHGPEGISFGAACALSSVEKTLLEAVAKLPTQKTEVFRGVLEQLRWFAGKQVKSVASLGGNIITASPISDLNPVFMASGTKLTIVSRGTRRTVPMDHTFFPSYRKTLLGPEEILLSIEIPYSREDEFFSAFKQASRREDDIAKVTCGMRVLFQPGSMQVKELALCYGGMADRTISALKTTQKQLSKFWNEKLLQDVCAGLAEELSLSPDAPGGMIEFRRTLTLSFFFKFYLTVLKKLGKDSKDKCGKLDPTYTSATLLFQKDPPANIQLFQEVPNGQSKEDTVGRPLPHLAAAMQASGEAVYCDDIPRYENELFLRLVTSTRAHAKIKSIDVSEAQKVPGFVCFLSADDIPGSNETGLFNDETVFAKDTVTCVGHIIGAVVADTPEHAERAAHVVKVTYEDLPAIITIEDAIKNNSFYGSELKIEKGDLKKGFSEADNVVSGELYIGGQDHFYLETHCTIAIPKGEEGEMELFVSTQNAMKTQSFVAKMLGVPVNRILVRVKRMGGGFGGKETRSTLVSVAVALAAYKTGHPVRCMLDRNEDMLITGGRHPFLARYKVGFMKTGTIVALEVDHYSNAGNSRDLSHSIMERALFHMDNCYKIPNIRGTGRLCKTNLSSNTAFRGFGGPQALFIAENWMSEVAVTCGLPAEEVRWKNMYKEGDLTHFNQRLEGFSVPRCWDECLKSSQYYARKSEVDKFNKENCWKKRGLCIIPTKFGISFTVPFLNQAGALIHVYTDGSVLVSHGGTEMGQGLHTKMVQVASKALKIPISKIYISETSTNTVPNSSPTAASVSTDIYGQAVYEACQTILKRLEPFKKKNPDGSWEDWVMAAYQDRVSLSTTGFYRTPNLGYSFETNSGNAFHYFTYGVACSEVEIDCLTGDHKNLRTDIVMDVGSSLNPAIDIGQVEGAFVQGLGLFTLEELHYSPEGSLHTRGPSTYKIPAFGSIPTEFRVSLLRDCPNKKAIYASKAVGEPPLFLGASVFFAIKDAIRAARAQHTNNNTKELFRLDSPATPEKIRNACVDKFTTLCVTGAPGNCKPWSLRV

For `CCN(CC)/[N+]([O-])=N/[O-].[Na+]` [DEA/NO], the “[3H] Dopamine Uptake” value ([1]; 100 μM DEA/NO with 50 μM H2O2, 60 min) was 2.8 ± 0.11 pmol/well/15 min, the “[3H] Dopamine Uptake” value ([1]; 100 μM DEA/NO with 100 μM H2O2, 60 min) was 2.6 ± 0.22 pmol/well/15 min and the “[3H] Dopamine Uptake” value ([1]; 100 μM DEA/NO with 0.04 U/ml HX/XO, 5 min) was 2.6 ± 0.15 pmol/well/15 min. For the same compound, the “[3H] Dopamine Uptake” value ([1]; 100 μM DEA/NO with 0.04 U/ml HX/XO, 10 min) was 2.3 ± 0.10 pmol/well/15 min, the “[3H] Dopamine Uptake” value ([1]; 100 μM DEA/NO, no addition (None)) was 2.7 ± 0.11 pmol/well/15 min and the “protection of dopamine uptake” value [1, 12] was “complete protection”. The “retained function (dopamine uptake)” value ([1]; hydrogen peroxide in presence of DEA/NO (100 μM, 1 hr), FIG. 3) was about 100%, the “inhibition of XO activity, production of superoxide (cytochrome c reduction)” value (XO [2]; 1 mM, preincubated with HX/XO) was “did not inhibit the activity of XO” and the “SOD sensitive ferricytochrome c reduction” value (XO [2]; presence of DEA/NO) was “quenching; also recorded: inhibited”. For the same compound, the “protection against HX/XO-induced cell killing” value ([3]; 0.1 mM) was “marginal protection”, the “protection against HX/XO-induced cell killing” value ([3]; 1 mM) was “significantly protected against cell killing” and the “protection against hydrogen peroxide cytotoxicity” value ([4]; 1 mM, added just prior to hydrogen peroxide, 1 hr exposure) was “nearly complete protection”. For the same compound, the “protection against hydrogen peroxide cytotoxicity” value ([4]; 1 mM, allowed to release NO for 1 hr prior to hydrogen peroxide) was “only modest protection”, the “effect on hydrogen peroxide cytotoxicity” value ([4]; 1 mM, incubated 16 hr in medium prior to hydrogen peroxide) was “enhanced the cytotoxicity of hydrogen peroxide” and the “effect of treatment after hydrogen peroxide” value ([4]; 1 hr hydrogen peroxide followed by 1 hr treatment with 1 mM) was “did not treat oxygen free radical mediated tissue damage”. For the same compound, the “rate of decomposition / rate of formation of NO” value [5] was “not altered; also recorded: unaffected”, the morphological changes (mesencephalic neurons; 100 μM alone, 1 hr) was “failed to cause morphological changes” and the “abnormalities in the neurites and somas” value (mesencephalic neurons; [12]) was “did not demonstrate abnormalities in the neurites and somas”. For the same compound, the “inhibition of XO activity, uric acid production” value (XO [6]; 1 mM, preincubated with HX/XO) was “did not inhibit the activity of XO” and the “uric acid production (UV 305 nm) / XO substrate turnover” value (XO [6]; presence of DEA/NO) was “not inhibited; also recorded: nor affect XO substrate turnover”.
In the case of `CC1(C)CCC=[N+]1[O-]` [DMPO], the “reduction of neuronal cell death” value (neuronal cell death) is listed as “more efficiently than the nitric oxide synthase inhibitor L-N-nitroarginine”.
In the case of `O=[N+]([O-])OCC(CO[N+](=O)[O-])O[N+](=O)[O-]` [nitroglycerin], the “NMDA receptor-mediated neuronal damage” value (NMDA receptor) is given as “reduce NMDA receptor-mediated neuronal damage”.
For nitric oxide [NO], the “leukocyte-endothelial cell adhesive interactions” value [7] is given as “inhibited”, the “quenching of Fenton-type oxidation” value [8] is given as “could quench Fenton-type oxidation” and the “reaction rate constant for NO and O2” value [9] is given as 5.6×10^7 M^-1 S^-1. For the same compound, the platelet aggregation (platelet aggregation) was “block platelet aggregation”, the “adverse effects in primary neuronal cell cultures” value [10] was “no adverse effects” and the “platelet adhesion to endothelial cell monolayers” value [11] was “reduce platelet adhesion to endothelial cell monolayers”. The lung tissue damage (lung tissue) was “damages lung tissue”.
